Patent US20070072874A1, “Aminoheteroaryl compounds as protein kinase inhibitors” (Sugen, Inc., priority 2003, published 2007)

The molecules below were run against T1, GST fusion protein containing the Met kinase domain (Homo sapiens, UniProt P08581) (assay: MET transphosphorylation assay (ELISA, poly(glu-tyr) substrate)).
T1 construct: Purified GST fusion protein containing the Met kinase domain, SUGEN, Inc
Format: biochemical
Description: MET Transphosphorylation Assay
This assay is used to measure phosphotyrosine levels on a poly(glutamic acid:tyrosine, 4:1) substrate as a means for identifying agonists/antagonists of met transphosphorylation of the substrate.
Purified GST fusion protein containing the Met kinase domain, SUGEN, Inc.
10% aqueous (MilliQue H2O) DMSO.
2× Kinase Dilution Buffer: for 100 mL, mix 10 mL 1M HEPES at pH 7.5 with 0.4 mL 5% BSA/PBS, 0.2 mL 0.1 M sodium orthovanadate and 1 mL 5M sodium chloride in 88.4 mL dH2O.
4× ATP Reaction Mixture: for 10 mL, mix 0.4 mL 1 M manganese chloride and 0.02 mL 0.1 M ATP in 9.56 mL dH2O.
4× Negative Controls Mixture: for 10 mL, mix 0.4 mL 1 M manganese chloride in 9.6 mL dH2O.
Antibody Dilution Buffer: for 100 mL, mix 10 mL 5% BSA/PBS, 0.5 mL 5% Carnation® Instant Milk in PBS and 0.1 mL 0.1 M sodium orthovanadate in 88.4 mL TBST.
Rabbit polyclonal antophosphotyrosine antibody, SUGEN, Inc.
Goat anti-rabbit horseradish peroxidase conjugated antibody, Biosource, Inc.
ABTS Solution: for 1 L, mix 19.21 g citric acid, 35.49 g Na2HPO4 and 500 mg ABTS with sufficient dH2O to make 1 L.
ABTS/H2O2: mix 15 mL ABST solution with 2 μL H2O2 five minutes before use.
Coat ELISA plates with 2 μg Poly(Glu-Tyr) in 100 μL PBS, hold-overnight at 4° C.
Block plate with 150 μL of 5% BSA/PBS for 60 min.
Wash plate twice with PBS then once with 50 mM Hepes buffer pH 7.4.
Add 50 μl of the diluted kinase to all wells. (Purified kinase is diluted with Kinase Dilution Buffer. Final concentration should be 10 ng/well.)
Add 25 μL of the test compound (in 4% DMSO) or DMSO alone (4% in dH2O) for controls to plate.
Incubate the kinase/compound mixture for 15 minutes.
Add 25 μL of 40 mM MnCl2 to the negative control wells.
Add 25 μL ATP/MnCl2 mixture to the all other wells (except the negative controls). Incubate for 5 min.
Add 25 μL 500 mM EDTA to stop reaction.
Add 100 μL rabbit polyclonal anti-Ptyr diluted 1:10,000 in Antibody Dilution Buffer to each well. Incubate, with shaking, at room temperature for one hour.
Add 100 μL per well and incubate at room temperature, with shaking, for one hour.
Add 100 μl of ABTS/H2O2 solution to each well.
If necessary, stop the development reaction with the addition of 100 μl of 0.2M HCl per well.

T1 sequence (P08581 1078-1345 limits assumed): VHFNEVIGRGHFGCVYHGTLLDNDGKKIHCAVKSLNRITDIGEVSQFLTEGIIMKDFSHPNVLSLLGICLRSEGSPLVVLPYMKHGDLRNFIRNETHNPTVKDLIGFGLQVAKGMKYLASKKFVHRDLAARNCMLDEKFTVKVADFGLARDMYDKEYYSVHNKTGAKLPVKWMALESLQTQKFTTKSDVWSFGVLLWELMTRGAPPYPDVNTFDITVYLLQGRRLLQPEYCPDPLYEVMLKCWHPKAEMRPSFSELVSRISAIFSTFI

Compared with `CC(Oc1cc(-c2ccc(C(=O)N3CCC(N4CCCC4)CC3)cc2)cnc1N)c1c(F)ccc(F)c1Cl` (stereo not shown) [Example I-339, (4-{6-Amino-5-[1-(2-chloro-3,6-difluoro-phenyl)-ethoxy]-pyridin-3-yl}-phenyl)-(4-pyrrolidin-1-yl-piperidin-1-yl)-methanone], `CC(Oc1cc(-c2ccc(C(=O)N3CCC(N)CC3)cc2)cnc1N)c1c(Cl)ccc(F)c1Cl` (stereo not shown) [Example I-305, (4-{6-Amino-5-[1-(2,6-dichloro-3-fluoro-phenyl)-ethoxy]-pyridin-3-yl}-phenyl)-(4-amino-pipendin-1-yl)-methanone] is 3.4-fold lower in IC50: 0.062 µM for the first, 0.018 µM for the second.

`CC(Oc1cc(-c2ccc(OCCN3CCCC3)cc2)cnc1N)c1c(Cl)ccc(F)c1Cl` (stereo not shown) [Example I-355, 3-[1-(2,6-Dichlaro-3-fluoro-phenyl)-ethoxy]-5-[4-(2-pyrrolidin-1-yl-ethoxy)-phenyl]-pyridin-2-ylamine] and `CC(Oc1cc(-c2ccc(OCCC3CCCN3C)cc2)cnc1N)c1c(Cl)ccc(F)c1Cl` (stereo not shown) [Example I-356, 3-[1-(2,6-Dichloro-3-fluoro-phenyl)-ethoxy]-5-{4-(2-[1-methyl-pyrrolidin-2-yl)-ethoxy]-phenyl)-pyridin-2-ylamine] are within 1.5-fold of each other in IC50: 0.68 µM for the first, 0.79 µM for the second.

Compared with `CN(C)[C@H]1CCN(C(=O)c2cccc(-c3cnc(N)c(OCc4c(F)ccc(F)c4Cl)n3)c2)C1` [II-54, {3-[5-Amino-6-(2-chloro-3,6-difluoro-benzyloxy)-pyrazin-2-yl]-phenyl}-[(3S)-3-dimethylamino-pyrrolidin-1-yl]-methanone], `CN(C)[C@H]1CCN(C(=O)c2ccc(-c3cnc(N)c(OCc4ccc(F)cc4Cl)c3)cc2)C1` [Example I-205] is 5.6-fold higher in IC50: 1.45 µM for the first, 8.1 µM for the second.

First: Nc1ncc(-c2cccnc2)cc1OCc1c(F)ccc(F)c1Cl [Example I-501, 5-(2-Chloro-3,6-difluoro-benzyloxy)-[3,3′]bipyridinyl-6-ylamine]
Second: Nc1ncc(-c2cccnc2)cc1OCc1ccccc1 [Example I-489, 5-Benzyloxy-[3,3′]bipyridinyl-6-ylamine]
The IC50 of the first is lower: 0.282 µM for the first, over 20 µM for the second. The first is the more potent here.

Going from `Nc1ncc(-c2ccc(NS(=O)(=O)CCNC3CC3)cc2)nc1OCc1c(F)ccc(F)c1Cl` [II-20, 2-Cyclopropylamino-ethanesulfonic acid {4-[5-amino-6-(2-chloro-3,6-difluoro-benzyloxy)-pyrazin-2-yl]-phenyl}-amide] to `CC(Oc1cc(C#CCNC(=O)CN2CCCC2)cnc1N)c1c(Cl)ccc(F)c1Cl` (stereo not shown) [Example I-426, N-(3-{6-Amino-5-[1-(2,6-dichloro-3-fluoro-phenyl)-ynyl)-2-pridin-1-y-ehoxy]-pyridin-3-yf}-prop-2-acetamide], the IC50 falls from 1.2 µM to under 0.0091 µM. The second is the more potent here.
